The term inhibition denotes the relative decrease from the control value, in per cent.

The subject of the assay is Staphylococcus haemolyticus CNCM I-4170. Put plainly: Protocol A: in-vitro malodor inhibition (free thiol groups from Cys-Gly precursor, DTNB absorbance at 412 nm). Particulars: for inhibition at 0.0012 % / inhibition at 0.0025 % / inhibition at 0.006 % / inhibition at 0.0125 % / inhibition at 0.025 % / inhibition at 0.05 % / inhibition at 0.1 % / inhibition at 0.005 % / inhibition at 0.0006 %: Staphylococcus haemolyticus, CNCMI4170, read-out: Ingredient Malodor Inhibition Value (%); for inhibition at 0.005 %: 0.005 w/v % in medium; for inhibition at 0.0006 %: 0.0006 w/v % in medium. In kind it is cell-based. An excerpt:
Further details of such a screening and % inhibition measurement and definition are described further on in this application. The precursor used, which may also be in the form of a human sweat sample, typically generates malodorant sulfur compounds when acted upon by the Staphylococcus haemolyticus cells, or by a β-lyase present in such cells. The malodor inhibition coefficient, as defined herein, reflects the % of reduction in free SH groups generated in the above-mentioned medium by the enzymatic activity of the bacterial cells when in presence of the MOC ingredient or MOC composition in question, as compared to the same measurement in their absence. […] Alternatively, the bacterial cells can be replaced by a β-lyase present in said cells. […] Detection of enzymatic activity inhibition is measured via the sulfur groups, namely thiol groups, freed from the precursor bacterial transformation, by comparison with the reference experiment in the absence of the respective MOC ingredient, said sulfur groups being detected by interaction with DTNB, a known chemical detector system for thiols. The reaction can be monitored by absorbance reading at 412 nm. The procedure can be performed indifferently with either a purified or semi-purified enzyme or intact bacterial cells, as in the case described here. Malodor inhibition coefficient is measured as a function of the percentage of free thiol groups in the medium, over time, by an absorbance method, and reflects the reduction in malodor obtained in the presence of the MOC ingredients and compositions. […] At the end of the growth phase, the bacterial cells were harvested by centrifugation at 5000 rpm for 15 min. The cell pellet was then washed with 0.1 volumes of sterile potassium phosphate buffer 0.1 M, pH 7.5. […] The precursor was used at 0.17 mM final concentration. • Detection reagent DTNB • DTNB (5,5′-Dithio-bis-(2-nitrobenzoic acid; […]

Where [1] appears, read: Table 2, 0.0012 w/v % in medium.
Where [2] appears, read: Table 2, 0.0025 w/v % in medium.
Setting [3] is: Table 2, 0.0125 w/v % in medium.

Where two headings read alike, the source gives them in different places.

Turning to `CC(CCO)CC(C)(C)C` (stereo not drawn) [3,5,5-Trimethyl-1-hexanol], the inhibition at 0.0012 % (0.0012 w/v % in medium) is 0%. Also, the inhibition at 0.0025 % (0.0025 w/v % in medium) is 0%. Moreover, for the setting “0.006 w/v % in medium”, the inhibition at 0.006 % came out at 0%. In addition, under “0.0125 w/v % in medium”, the inhibition at 0.0125 % was 0%. In addition, the inhibition at 0.025 % (0.025 w/v % in medium) is 35%. Besides, where the note is “0.05 w/v % in medium”, the inhibition at 0.05 % was 58.3%. The inhibition at 0.1 % (0.1 w/v % in medium) came out at 62.9%.
Regarding `CC/C(=C\C[C@H]1CC=C(C)C1(C)C)CO` [(-)-(2E)-2-Ethyl-4-[(1R)-2,2,3-trimethyl-3-cyclopenten-1-yl]-2-buten-1-ol], the inhibition at 0.0012 % (0.0012 w/v % in medium) was found to be 0%. Moreover, the inhibition at 0.0025 % (0.0025 w/v % in medium) stood at 21.2%. Moreover, the inhibition at 0.006 % (0.006 w/v % in medium) is 70.8%. Besides, the inhibition at 0.0125 % (0.0125 w/v % in medium) is 80%. Besides, the inhibition at 0.025 % (0.025 w/v % in medium) amounted to 80.3%.
Regarding `CC(C)(O)CCC1CCCCC1` [Coranol ®, 4-cyclohexyl-2-methyl-2-butanol], the inhibition at 0.0012 % (0.0012 w/v % in medium) worked out at 0%. In addition, where the note is “0.0025 w/v % in medium”, the inhibition at 0.0025 % is 0%. In addition, under “0.006 w/v % in medium”, the inhibition at 0.006 % was found to be 10.8%. Further, the inhibition at 0.0125 % (0.0125 w/v % in medium) worked out at 49.8%. Also, the inhibition at 0.025 % (0.025 w/v % in medium) came to 77.7%. Also, under “0.1 w/v % in medium”, the inhibition at 0.1 % amounted to 77.8%.
As to `c1nc2c(o1)CCCCCCCCCC2` [4,5,6,7,8,9,10,11,12,13-Decahydrocyclododeca-1,3-oxazole], the inhibition at 0.0012 % under setting [1] was 0%. Further, the inhibition at 0.0025 % under setting [2] came to 0%. For the same compound, where the note is “Table 2”, the inhibition at 0.005 % amounted to 52.2%.
On to `CC1C(C)(C)C2=C(C(=O)CCC2)C1(C)C` (stereo not drawn) [Cashmeran, 1,2,3,5,6,7-hexahydro-1,1,2,3,3-pentamethyl-4-indenone], for which the inhibition at 0.0012 % (0.0012 w/v % in medium) stood at 0%. Further, the inhibition at 0.0025 % (0.0025 w/v % in medium) worked out at 0%. Moreover, the inhibition at 0.006 % (0.006 w/v % in medium) came out at 19.2%. For the same compound, where the note is “0.0125 w/v % in medium”, the inhibition at 0.0125 % turned out to be 54%. The inhibition at 0.025 % (0.025 w/v % in medium) is 71.5%. Besides, the inhibition at 0.05 % (0.05 w/v % in medium) stood at 70.1%. Besides, the inhibition at 0.1 % (0.1 w/v % in medium) came to 73.2%.
For the compound `C=CCCCCCCCCC=O` [10-Undecenal], the inhibition at 0.0012 % under setting [1] was 3%. Also, the inhibition at 0.005 % (Table 2) came out at 49.2%.
On to Terpenyl acetate, for which the “Ingredient Malodor Inhibition Value (%)” value amounted to 0.00% (0.0012 w/v % in medium); 0.00% (0.0025 w/v % in medium); 0.00% (0.006 w/v % in medium); 0.00% (0.0125 w/v % in medium); 0.00% (0.025 w/v % in medium); 6.81% (0.05 w/v % in medium). Besides, the “Ingredient Malodor Inhibition Value (%)” value (0.1 w/v % in medium) came out at 00.00%.
On to `CCCCCCCCC/C=C/C=O` [(E)-2-Dodecenal], for which, for the setting “Table 2”, the inhibition at 0.0006 % was found to be 10.4% and the inhibition at 0.005 % was 86.9%. Moreover, the inhibition at 0.0012 % under setting [1] came to 29.7%. For the same compound, the inhibition at 0.0025 % under setting [2] was 55.4%. Under setting [3], the inhibition at 0.0125 % is 94%.
Consider `CC(C)(C)C1CCC(O)CC1` (stereo not drawn) [4-tert-Butyl-1-cyclohexanol], for which the inhibition at 0.0012 % (0.0012 w/v % in medium) is 0%. Moreover, the inhibition at 0.0025 % (0.0025 w/v % in medium) is 0%. In addition, the inhibition at 0.006 % (0.006 w/v % in medium) is 0%. In addition, the inhibition at 0.0125 % (0.0125 w/v % in medium) amounted to 0%. For the same compound, the inhibition at 0.025 % (0.025 w/v % in medium) came to 59.8%. In addition, the inhibition at 0.05 % (0.05 w/v % in medium) is 89.1%.
On to `CC(C=O)Cc1ccc(C(C)(C)C)cc1` (stereo not drawn) [Lilial ®, 3-(4-tert-butylphenyl)-2-methylpropanal], for which the inhibition at 0.0012 % (0.0012 w/v % in medium) was 0.9%. Where the note is “0.0025 w/v % in medium”, the inhibition at 0.0025 % was found to be 9.47%. Where the note is “0.006 w/v % in medium”, the inhibition at 0.006 % was 37.5%. Further, the inhibition at 0.0125 % (0.0125 w/v % in medium) is 81%. Also, the inhibition at 0.025 % (0.025 w/v % in medium) worked out at 90%.
For `CC1(C)C2CC=C(CCC=O)C1C2` (stereo not drawn) [3-(6,6-Dimethyl-bicyclo[3.1.1]hept-2-en-2-yl)propanal], the inhibition at 0.0012 % under setting [1] was 0%. Besides, the inhibition at 0.0025 % under setting [2] is 4.58%. Besides, for the setting “Table 2”, the inhibition at 0.005 % was 82.9%. Besides, under setting [3], the inhibition at 0.0125 % came out at 96.7%. In addition, the inhibition at 0.025 % (Table 2, 0.025 w/v % in medium) was 100%. Where the note is “Table 2, 0.05 w/v % in medium”, the inhibition at 0.05 % came to 96.3%.
Turning to `CCCCCCC/C=C\CCC=O` [(Z)-4-Dodecenal], under “Table 2”, the inhibition at 0.0006 % came to 0% and the inhibition at 0.005 % came out at 76.5%. The inhibition at 0.0012 % under setting [1] was determined as 0%. For the same compound, under setting [2], the inhibition at 0.0025 % came out at 6.96%.

The values above are taken from patent US20150297482A1, “MALODOR COUNTERACTING COMPOSITIONS AND METHOD FOR THEIR USE TO COUNTERACT SWEAT MALODOR” (FIRMENICH SA, priority 2009, published 2015).
